# Data taken from US12161114B2, “Overpowered ABA receptor agonists” (The Regents of the University of California, priority 2018, dated 2024).
# Entries after “also recorded” stand apart in the source; their conditions may differ.
# Key:
# [1] = tested on: Arabidopsis pMAPKKK18-Luc+ reporter strain seedlings; test: ABA reporter gene luminescence assay; format: in vivo; conditions: 25 μM, 6-hours post-treatment
# Method: Liquid grown Arabidopsis […]18-Luc+ reporter strain seedlings were treated with 25 μM test compounds or a mock control and 100 μM luciferin. Luminescence images were captured 6-hours post-treatment.
# [2] = tested on: panel of recombinant ABA receptors; PP2C HAB1; test: receptor-mediated PP2C inhibition assay, dose response, umbelliferone substrate; format: biochemical, Arabidopsis
# Method: Each ligand was tested at concentrations spanning 7 points between 4 nM and 50 μM in triplicate in a reaction buffer containing 100 mM Tris-HCl-pH7.9, 100 mM NaCl, 30 μg/ml BSA, 0.1% 2-mercaptoethanol, 25 nM ΔN-HAB1, 1 mM 4-methylumbelliferyl phosphate, and different recombinant ABA receptors at 50 nM or 300 nM (for PYL9 or PYL11). The substrate was added ˜20 minutes after the other components had been mixed and fluorescence data collected. Control carrier solvent-only wells were included as a reference and %-activity for tested compounds calculated relative to this control. The dose response data (PP2C activity versus agonist concentration) was fit to a log (inhibitor) vs. response-(variable slope) model using non-linear regression to infer the IC50S, using GraphPad Prism 6.0, to yield the IC50 values shown in FIG. 6.
# The potency and selectivity of ligands 2b, 2e-f was established by testing their ability to activate multiple ABA receptor subtypes using the fluorescence based phosphasted assay as outlined in example 2 at a range of concentrations (4 nM to 50 μM). In addition, we compared ligand potency to ABA, quinabactin and a recently described fluorinated quinabactin analog AMF4, which is reported to have improved potency in comparison toe quinabactin. To conduct the assays purified recombinant receptors were tested at 50 nM or, in the a cases of PYL9 and PYL11, 300 nM and 25 nM ΔN-HAB1. The PP2C-activity dose response data obtained was fit to a log (inhibitor) vs response-(variable slope) model using non-linear regression to infer the IC50S, using GraphPad Prism 6.0, to yield IC50 values as shown in FIG. 12A. […] Moreover, the installation of a single cyclopropyl group ortho to the nitrile (analog 2e) provided a further boost in potency, dramatically so for all subfamily III receptors, PYL4 and PYL11. […] Furthermore, the installation of a second cyclopropyl substituent (analog 2f) provides an even further boot in activity on subfamily III receptors, which comes at the expense of reduced potency on subfamily I receptors. […] 2f is therefore an unusually overpowered ABA receptor agonist, which we refer to as opabactin (Opa).
# Arabidopsis plants = test: thermal imaging of leaf temperature (anti-transpirant activity), Arabidopsis; format: in vivo, Arabidopsis thaliana; conditions: 50 μM spray, 24 hr after treatment
# Method: Three to 4 week old Arabidopsis plants were used for thermal imaging, 4 evenly spaced seedlings were included per 4-inch pot, each pot treated as a single measurement. Chemical treatments were as follow: compounds were dissolved in 0.5% DMSO and 0.02% Silwet-77 (Lehle seeds) at 50 μM and rosette leaves treated with 5 mL applied as an aerosol. Thermal images were collected using FLIR T62101 camera 24 hr after treatment. Seedlings positions were randomized to control for microenvironmental differences in the growth room. Treated plants were compared to mock treated plants (sprayed with 5 mL blank 0.5% DMSO/0.02% Silwet-77 solution). Average rosette leaf temperatures were obtained by averaging the temperatures measured from between 10-15˜1 cm^2 area spots from the 4 plants in each replicate pot, using FLIR software. Statistical analyses of the treatment effects were conducted in GraphPad using a one way ANOVA between control and treatment samples and a Dunnett test was used to obtain multiplicity adjusted p values, which are reported in FIG. 15.
# [3] = tested on: wild type Columbia Arabidopsis thaliana seeds; test: Arabidopsis seed germination assay; format: in vivo
# Method: Prior to selecting a scaffold for optimization we conducted Arabidopsis seed germination assays to establish if the hits obtained are activity in vivo. Germination experiments were performed with surface sterilized wild type Columbia Arabidopsis thaliana seeds and abi1C (the abi1-1 allele isolated in the Columbia ecotype) plated onto 0.7% agar medium containing 1/2-x MS salts, 0.5% sucrose and differing concentrations of the test compounds. After 4d of stratification at 4° C., the plates were transferred to a growth chamber under continuous illumination and evaluated after 4 days.
# To establish if the in vitro potency of Opa translates into improved activity in vivo, we measured the effects of ABA, QB, AMF4, Opa and 2e on Arabidopsis seed germination at a range of concentrations to infer quantitative measures or potency. Methods similar to that described in Example 3 are followed. The percentage of germinated seeds were recorded for each chemical treatment for each concentration in quadruplicate. EC50 values denote the concentrations at which 50% of seeds have been inhibited.
# tomato plants = test: thermal imaging of leaf temperature (anti-transpirant activity), tomato; format: in vivo, Lycopersicon esculentum; conditions: var. UC82, 50 μM or 100 μM spray, 24 hour intervals for 5 days
# Method: To evaluate the efficacy of Opa in a different crop species, we performed quantitative thermal imaging in tomato plants. Tomato (var. UC82), seeds were spread on a moist filter paper and incubated in a dark chamber at room temperature for 7 days, after which they were transferred to light. After the first leaves emerged, the seedlings were transferred to soil and grown on a day night cycle; 3-4 w old plants were used for thermal imaging. Before thermal imaging, topical spraying of the plants was performed with a water solution containing ABA, quinabactin or the compound of interest, 0.5% DMSO and 0.05% Silwet-77 (Lehle seeds). 20 mL of 50 μM or 100 μM solutions were sprayed on the plants and thermal images were taken with an infrared camera (FLIR T62101) at 24 hour intervals after treatment for 5 days. […] Mock treated samples were analyzed with 8 replicates and chemical treatments with 4 replicates. […] The corrected p-values for treatment effects at all time points is summarized in the inset table and highlighted yellow if a significant increase in leaf temperature was observed.
structure (smiles),measurement,setting,value
"N#Cc1c(C2CC2)cc(CC(=O)NC2(C(=O)O)CCCCC2)cc1C1CC1 [2f, 1-[2-(4-cyano-3,5-dicyclopropylphenyl)acetamido]cyclohexane-1-carboxylic acid]",induction of ABA-transcriptional responses (luminescence),[1],effective inducer of ABA-transcriptional responses
same,potency in receptor-mediated PP2C inhibition (in words),[2]; 4 nM to 50 μM dose response,most potent subfamily III agonist reported to date; also recorded: greatly more active than quinabactin and AMF4 on subfamily III receptors
same,improved potency relative to ABA,[2]; subfamily IIIA receptors,> 10 x
same,effects on transpiration (leaf temperature),Arabidopsis plants,ABA-like effects on transpiration
same,test concentration (twice the EC50 for germination inhibition),"[3]; Arabidopsis thaliana, printed value is twice the EC50, used as test concentration on mutants, read-out: twice the concentrations determined as its EC50 (inhibition of germination) (converted)",0.06 µM
same,fold more active than either QB or AMF4 in seed germination inhibition,[3]; in vivo,> 10 x
same,inhibition of Arabidopsis seed germination (in words),[3]; in vivo,potently inhibits seed germination
same,anti-transpirant activity (leaf temperature),tomato plants,highly active anti-transpirant in tomato with significantly longer effects than ABA
